Assay results reported in patent publication US20040192738A1, “2-(Butyl-1-sulfonylamino)-N-[1(R)-(6-methoxypyridin-3-yl)propyl] benzamide, its use as a medicament, and pharmaceutical preparations comprising it” (Aventis Pharma Deutschland GmbH, priority 2003, published 2004).
“And” between values parts separate entries of the source, which are not always exact repeats. Equal entries are not always repeated.

Tests used:
[1] = system: left atrium of the anesthetized pig; assay: Refractory period and left-atrial vulnerability in the anesthetized pig; type: in vivo; conditions: for % inhibition of the arrhythmias: arrhythmias induced by premature extra-stimulus (S2) in the left atrium, 3 mg/kg; for % inhibition of the arrhythmias / % increase in the refractory period: mean value; for % increase in the refractory period: left atrium, 10 minutes after injection, mean of three rates (150, 200 and 250/min); for antiarrhythmic action: model on the anesthetized pig
Method: Investigation of the Refractory Period and the Left-Atrial Vulnerability in the Pig
In the course of this, the refractory period of the left atrium was determined and the antiarrhythmic activity was recorded as described in the literature (Knobloch et al. 2002. Naunyn-Schmiedberg's Arch. Pharmacol. 366; 482-487). The anti-arrhythmic action relates here to the inhibition of the occurrence of episodes of arrhythmias which are induced by a prematurely placed extra-stimulus (S2) in the left atrium (=left-atrial vulnerability).
The refractory period values are stated in percent of the basal values 10 minutes after injection. Mean values for the refractory periods are shown from three rates (150, 200 and 250/min).
By repeated measurement after substance administration, the duration of action of a substance on the refractory period can be determined in this experimental procedure. The R enantiomer was infused intravenously over the course of 100 minutes in a dose of 1 mg/kg and the pharmacological action was determined over the course of 280 minutes.

[2] = Effect on QTc interval and inotropic or hemodynamic side effects; conditions: in vivo
[3] = anesthetized pig, bolus 3 mg/kg

For `CCCCS(=O)(=O)Nc1ccccc1C(=O)N[C@@H](CC)c1ccc(OC)nc1` [S enantiomer, 2-(butyl-1-sulfonylamino)-N-[1(S)-(6-methoxypyridin-3-yl)propyl]benzamide], the “% inhibition of the arrhythmias” value [1, 3] was 27% and 27.3%, the “% increase in the refractory period” value [1, 3] was 8.8% and the antiarrhythmic action ([1]; result in words) was “more weakly active”.
In the case of `CCCCS(=O)(=O)Nc1ccccc1C(=O)N[C@H](CC)c1ccc(OC)nc1` [formula I, 2-(butyl-1-sulfonylamino)-N-[1(R)-(6-methoxypyridin-3-yl)propyl]benzamide], the “duration of action on the left-atrial refractory period after ending the infusion” value ([1]; anesthetized pig, 1 mg/kg intravenous infusion over 100 minutes, observed over 280 minutes, FIG. 1) is reported as ≥ 180 min, the “% inhibition of the arrhythmias” value ([1]; anesthetized pig, bolus 3 mg/kg, listed as R enantiomer) is reported as 73.9% and the “prolongation of the refractory period (comparison of enantiomers)” value ([1]; anesthetized pig, bolus 3 mg/kg, result in words) is reported as “markedly greater prolongation of the refractory period than the S enantiomer”. For the same compound, the “% increase in the refractory period” value [1, 3] was 19%, the antiarrhythmic action ([1]; result in words) was “excellent” and the “effect on the QTc interval” value [2] was “no effect”. For the same compound, the “negative inotropic or hemodynamic side effects” value [2] was “no negative inotropic or hemodynamic side effects” and the melting point was 97 °C.
